Test results: paper PMC10191434 (2023)

Test system: modified procaine-binding aptamer (new sequence) (DNA, aptamer) AGACAAGGAAAATCCTTCAACGAAGTGGGTCG
Assay: square-wave voltammetry, EAB sensor titration
Settings: undiluted bovine CSF, 37 °C, immobilised aptamer; for binding: highest concentration not given

| Compound | binding | Kd (Langmuir-Hill fit, ± is 95% confidence) [µM] |
| --- | --- | --- |
| CCN(CC)CCO | no | – |
| CCN(CC)CCOC(=O)c1ccc(N)cc1 | – | 960 ± 30 |
| Nc1ccc(C(=O)O)cc1 | no | – |
